Measurements taken from patent publication US7524852B2, “Bicyclic pyrimidine derivatives” (Kyowa Hakko Kogyo Co., Ltd., priority 2002, dated 2009).

System: Hut78 cells
Test: Inhibitory activity on binding of [125I]-TARC to Hut78 cells
Conditions: [125I]-TARC binding to Hut78 cells; test compound at 1 μmol/L
Description: The RPMI-1640 medium (Sigma-Aldrich Japan) containing 20 mmol/L HEPES [4-(2-hydroxyethyl)-1-piperazinylethanesulfonic acid; HEPES, Nacalai Tesque, Inc.] and 0.1 w/v % bovine serum albumin (SEIKAGAKU CORPORATION) was adjusted to pH 7.0 with sodium hydrogen carbonate (Wako Pure Chemical Industries, Ltd.) to yield a binding/wash buffer. In a 96-well round-bottomed plate (Corning Costar Corporation) were placed 60 μL of a suspension of Hut78 cells (ATCC No. TIB-161) ([…] cells) in the binding/wash buffer, 20 μL of a solution of a test compound and 20 μL of a solution of 810 Bq of [^125I]-TARC (Amersham Biosciences K.K.) diluted with the binding/wash buffer up to the total aliquot of 100 μL, followed by reaction at room temperature for two hours. The solution of the test compound had been prepared by dissolving the test compound in dimethyl sulfoxide (Nacalai Tesque, Inc.) to a concentration of 10 mmol/L, and diluting the solution with the binding/wash buffer to a series of concentrations. The nonspecific binding was determined by a binding assay in the presence of a sufficient amount of unlabeled TARC. The total binding was defined as a binding in the case where dimethyl sulfoxide (Nacalai Tesque, Inc.) was added, instead of the test compound, in the same concentration (0.1 v/v %). […] Microscinti 20 (Packard BioScience Company) was placed in each well at 50 μL/well, and the radioactivity on the glass filter was determined using Topcount NXT™ (Packard BioScience Company). The binding inhibitory rates (%) of the test compounds were determined by calculation according to the following equation:
[formula] Total binding: [^125I]-TARC binding radioactivity without addition of the test compound Binding upon addition of test compound: [^125I]-TARC binding radioactivity at respective concentration upon addition of test compound Nonspecific binding: [^125I]-TARC binding radioactivity upon addition of unlabeled TARC

SMILES | The Binding Inhibitory Rates at 1 μmol/L
CCNC(=O)N1CCc2nc(N3CCN(C[C@@H]4CN(C)CCO4)CC3)nc(NCc3ccc(Cl)cc3Cl)c2C1 [Compound 15-47] | 96
CCCNC(=O)N1CCc2nc(N3CCN(CC4CN(C)CCO4)CC3)nc(NCc3ccc(Cl)cc3Cl)c2C1 (stereo not drawn) [Compound 15-54] | 97
CCCNC(=O)N1CCc2nc(N3CCN(CC4CN(C)CCO4)CC3)nc(NCc3ccc(Cl)cc3Cl)c2C1 (stereo not drawn) [Compound 15-59] | 90
